According to patent publication US9888679B2, “Protection of progenitor cells and regulation of their differentiation” (Proteobioactives Pty Ltd, priority 2007, dated 2018):

System: Primary progenitor cells
Test: Differentiation in adipogenic media: adipocyte formation, Oil Red O
Format: cell-based, human
Conditions: FIG. 8; for differentiation of progenitor cells into adipocytes: adipogenic media, 1.0, 5.0, 10 micrograms/mL
Method: FIG. 8. The Effects of Pentosan Polysulfate (PPS) on Human progenitor cell Differentiation: Adipocyte Formation. Primary progenitor cells were cultured in 96 well plates in non-adipogenic growth media (media control) or under adipogenic conditions (0.5 mM methylisobutylmethylxanthine, 0.5 μM hydrocortisone, and 60 μM indomethacin) in the presence of PPS at the indicated concentrations. On day 28, the presence of lipid laden adipocytes was determined using the lipophilic dye Oil Red O. The relative amount of solubilised lipid per μg of DNA/well was determined following the assessment of the total amount of DNA per well using a fluorogenic DNA stain (Hoeshst 33258). […] (A) Phase-contrast photomicrographs of Oil Red O labeled adipocytes at ×20 magnification.
The conditions required for the development of lipids from human bone marrow stromal cells in vitro have been previously described (Gimble J. Marrow stromal adipocytes. In: Marrow stromal cell culture. J N Beresford, Owen, M. E., ed. Cambridge University Press, Cambridge, pp 67-87 (1998)). Briefly, human progenitor cells were seeded into 96-well plates at a density of 8×10^3 cells per well in complete alpha-MEM growth media and were allowed to reach >90% confluence prior to addition of inductive media. Cells were cultured in adipogenic-inductive media comprised of complete alpha-MEM supplemented with 0.5 mM 3-Isobutyl-1-methyl-xanthine (IBMX), 60 microM Indomethacin, and 0.5 microM Hydrocortisone in the presence of a titration of PPS (0.0, 1.0, 5.0, 10 micrograms/mL). The inductive media was changed twice weekly for a period of 4 weeks. Cells were stained for the presence of lipid using Oil Red ‘O’.
Cells were cultured as described above and gently rinsed in 1×PBS (pH7.4) to avoid disruption of the cell monolayer. Cells were fixed in phosphate buffered formalin for 15 minutes at RT. The fixative was subsequently removed and lipid stained by adding 100 microL of freshly filtered Oil Red O (3 mg/mL; MP Biomedicals, Australia) for ≧2 hours at RT. […]

pentosan polysulfate [PPS]
adipocyte number (Oil Red O lipid per μg DNA) (adipogenic conditions, day 28, PPS in excess 1 ug/ml, p<0.01, ANOVA): statistically significant increase in adipocyte number | differentiation of progenitor cells into adipocytes: upregulation seen at all concentrations | differentiation of progenitor cells into adipocytes (listed as polysulfated polysaccharides): showed differentiated to adipocytes
